Reference: publication PMC11360180, “Enhancement of Antimicrobial Function by L/D-Lysine Substitution on a Novel Broad-Spectrum Antimicrobial Peptide, Phylloseptin-TO2: A Structure-Related Activity Research Study” (Pharmaceutics, 2024)
Where a SMILES comes first, the peptide text is derived from it. Where no end group is shown, it is not given here. [ ]: non-standard residue; d: D form.

What was measured:
NCI-H460 = type: cell-based, human; details: 24 h
Description: (§1) The percentage of cancer cell survival after being treated with peptides was assessed with 3-(4,5-dimethylthiazol-2-yl-)-2,5-diphenyltetrazolium bromide (MTT). The principle is the reduction process of the yellow tetrazolium to DMSO-soluble formazan crystals caused by the metabolic capability of living cells. All the cancerous and normal cells were obtained from the American Type Culture Collection (Rockville, VA, USA). Human lung cancer NCI-H838 and NCI-H460 were cultured in Roswell Park Memorial Institute (RPMI)-1640 medium (Gibco, Paisley, UK) and mixed with 10% (v/v) fetal bovine serum (FBS) (Gibco, Campinas, Brazil) and 1% penicillin–streptomycin (Gibco, Grand Island, NY, USA) 89/10/1 v/v/v). U251MG and MCF-7 were cultured in Dulbecco’s Modified Eagle medium (DMEM) (Gibco, Paisley, UK) and mixed with 10% FBS and 1% penicillin–streptomycin. HCT 116 was cultured in McCoy’s 5A (modified) medium (Gibco, Paisley, UK) and mixed with 10% FBS and 1% penicillin–streptomycin. MRC-5 and HaCat were cultured in Minimum Essential Medium (MEM) (Gibco, Paisley, UK) and mixed with 10% FBS and 1% penicillin–streptomycin. Cells were cultured and seeded in a 96-well plate at a density of 8000 cells/well with the corresponding medium and incubated for 24 h at 37 °C with 5% CO2. After 24 h of incubation, the cells were starved with a serum-free medium for 4 h at 37 °C. Then, the cells were incubated with different concentrations of peptide solution in a serum-free medium from 1 nM to 100 µM at 37 °C for 24 h. Meanwhile, triton X-100 (0.1%) (Sigma-Aldrich, St. Louis, MO, USA) and PBS were chosen as positive and negative controls. After 10 µL of MTT (5 mg/mL) was added to each well away from light and incubated at 37 °C for 2 h, the formazan generated by mitochondria was dissolved with DMSO. The absorbance was detected at a wavelength of 570 nm by a Synergy HT plate reader (Bio-Tek, Shoreline, WA, USA).

U251MG = type: cell-based, human; details: 24 h
Description: as §1

[1] = tested on: S. aureus (ATCC 6538) biofilm; type: cell-based, Staphylococcus aureus; details: ATCC 6538, 24 h
Description: To test the anti-biofilm ability of PSTO2 and its analogues, three types of microorganisms (S. aureus ATCC® 6538, E. coli ATCC® 8739, and MRSA NCTC® 12493) were chosen. Tryptic soy broth (TSB) and Lysogeny broth (LB) were used to culture microorganisms. The peptide was dissolved in an autoclaved PBS solution and diluted into concentrations ranging from 51,200 µM to 100 µM. One µL of peptide solution of each concentration was added into a 96-well plate with 100 µL bacterium at 5 × 10^5 CFU/mL. The plate was incubated at 37 °C for 24 h, with shaking at 200 rpm. After overnight incubation, the planktonic bacteria were washed up. Then, 100 µL of methanol was used to fix the biofilms onto the bottom, and 100 µL of 0.1% crystal violet solution (Sigma-Aldrich, Gillingham, UK) was added to each well to stain the biofilms. After drying, 160 µL of acetic acid (30% in deionised water, Sigma-Aldrich, UK) was added to each well to dissolve the shaded parts. The absorbance was detected with the Synergy HT plate reader at λ = 595 nm.
For the MBEC assay, 100 µL of the bacterium of 5 × 10^5 CFU/mL was transferred into an empty 96-well plate, and the plate was incubated at 37 °C for 24 h to obtain the biofilms primarily. Then, the peptide solution from 512 µM to 1 µM was transferred into a corresponding well, followed by 24 h incubation at 37 °C, with shaking at 200 rpm. After this, the plate was handled using the identical method to the plate in the MBIC assay, and the absorbance of each well was detected with the Synergy HT plate reader at λ = 595 nm. The minimum concentration at which the peptide can eradicate the existing biofilm was recorded as the MBEC value.

horse red blood cells = type: cell-based
Description: To assess the haemolytic activity of PSTO2 and its analogues, 2% fresh defibrinated horse red blood cells (TCS Biosciences Ltd., Buckingham, UK) were acquired after being washed and resuspended in sterile PBS. Each peptide was dissolved in PBS to prepare solutions with concentrations ranging from 2 µM to 1024 µM. Subsequently, 100 µL of each peptide solution was mixed with 100 µL of the red blood cell suspension. The red blood cells treated with 1% triton X-100 and sterile PBS in equivalent volumes were set up as the positive and negative control groups, respectively. Then, all the samples were incubated at 37 °C for 2 h. Thereafter, the samples were centrifuged at 900× g for 10 min. Finally, 100 µL of supernatant of each sample was transferred into a 96-well plate, and the absorbance was recorded by a Synergy HT plate reader (Bio-Tek, Shoreline, WA, USA) at a wavelength of 570. The following equation was used to calculate haemolysis activity:Haemolysis activity = (Sample absorbance − Ab)/(Ap − Ab) × 100% where Ab refers to the mean value of absorbance of the negative control (incubated with PBS only), and Ap refers to the mean absorbance value of the positive control (incubated with triton X-100).

MRSA (NCTC 12493) = type: cell-based, methicillin-resistant Staphylococcus aureus; details: NCTC 12493, 24 h
From the text: Seven microorganism strains were used to preliminarily evaluate the antimicrobial activity of PSTO2 and its analogues, including Staphylococcus aureus (S. aureus) (ATCC® 6538), methicillin-resistant Staphylococcus aureus (MRSA) (NCTC® 12493), Enterococcus faecalis (E. faecalis) (NCTC® 12697), E. coli (ATCC® 8739), Klebsiella pneumonia (K. pneumonia) (ATCC® 43816), Pseudomonas aeruginosa (P. aeruginosa) (ATCC® CRM 9027), Acinetobacter baumanni (A. baumanni) (BAA® 747), and Candida albicans (C. albicans) (ATCC® 10231). In this study, the strains were cultured in Mueller–Hinton broth (MHB), nutrient broth (NB), and yeast–peptone–dextrose broth (YPD-B) correspondingly at 37 °C, with shaking at 120 rpm. Each peptide was dissolved from 128 μM to 1 μM and mixed with the bacterium at 5 × 10^5 CFU/mL. In this process, bacteria with culture medium were used as the growth control group; PBS was set up as the vehicle control group; sterile culture medium was used as the blank control group; and Norfloxacin at a concentration of 2 mg/mL and amphotericin B at a concentration of 1 mg/mL were set up as the positive control group for bacteria and fungi, respectively.
After being incubated for 24 h, a Synergy HT plate reader (Bio-Tek, Shoreline, WA, USA) was used to detect the absorbance of each well in the 96-well plate at λ = 550 nm. The concentration at which no visible turbidity could be recorded was the MIC value. Beginning from the MIC value, 10 µL of solution in each clear well was dropped on the sterile agar plates. The plate was checked the next day for colony formation, and the lowest concentration at which no colony growing was recorded as an MBC value.

Row | Molecule | IC50 (NCI-H460) | IC50 (U251MG) | MBEC [1] | MBIC [1] | HC10 (horse red blood cells) | MBC (MRSA (NCTC 12493)) | MIC (MRSA (NCTC 12493))
1 | CC[C@H](C)[C@H](NC(=O)[C@H](C)NC(=O)[C@@H](CCCCN)NC(=O)[C@@H]1CCCN1C(=O)[C@@H](NC(=O)[C@H](CC(C)C)NC(=O)[C@H](CO)NC(=O)[C@H](CC(C)C)NC(=O)[C@@H](N)Cc1ccccc1)[C@@H](C)CC)C(=O)N[C@@H](CCCCN)C(=O)N[C@@H](C)C(=O)N[C@H](C(=O)N[C@@H](CCCCN)C(=O)N[C@@H](C)C(=O)N[C@@H](CC(C)C)C(=O)N[C@@H](C)C(=O)N[C@@H](CCCCN)C(=O)N[C@H](CCCCN)C(=O)N[C@@H](CC(C)C)C(N)=O)C(C)C [SR2D10] (H-FLSLIP[dK]AIKAVKALAK[dK]L-NH2) | 7.7 µM | 16.1 µM | 32 µM | 4 µM | 75.24 | 1/1 μM | 
2 | CC[C@H](C)[C@H](NC(=O)[C@H](C)NC(=O)[C@@H](CCCCN)NC(=O)[C@@H]1CCCN1C(=O)[C@@H](NC(=O)[C@H](CC(C)C)NC(=O)[C@H](CO)NC(=O)[C@H](CC(C)C)NC(=O)[C@@H](N)Cc1ccccc1)[C@@H](C)CC)C(=O)N[C@@H](CCCCN)C(=O)N[C@@H](C)C(=O)N[C@H](C(=O)N[C@@H](CO)C(=O)N[C@@H](C)C(=O)N[C@@H](CC(C)C)C(=O)N[C@@H](C)C(=O)N[C@@H](CCCCN)C(=O)N[C@@H](CCCCN)C(=O)N[C@@H](CC(C)C)C(N)=O)C(C)C [SRD7] (H-FLSLIP[dK]AIKAVSALAKKL-NH2) | 2.31 µM | 13.9 µM | 32 µM | 2 µM | 74.78 | 2 µM | 1 µM
3 | FLSLIPKAIKAVKALAKKL-NH2 [SR2] | 5.92 µM | 6.72 µM | 16 µM | 2 µM | 6.53 | 2 µM | 2 µM
4 | FLSLIPKAIKAVSALAKKL-NH2 [SR] | 3.07 µM | 9.65 µM | 16 µM |  | 12.60 | 2 µM | 2 µM
